According to a melting point compilation (Tetko et al.; mined from patent text by program, amines drawn as free bases though some values may be those of a salt):

First: Cn1c2ccccc2c2ccc3c(c21)C(=O)OC3=O
Second: O=C(O)C(c1ccccc1)N1CC(N2C(=O)c3ccccc3C2=O)C1=O (stereo not given)
The melting point of the first is higher: greater than 300 °C for the first, 176 to 183 °C for the second.

Compared with `COC(=O)CNc1ccc(OCc2ccccc2)cc1`, `COC(=O)c1cccc(Oc2ncccc2C(=O)NCc2ccccc2)c1` is higher in melting point: 106 to 107 °C for the first, 119 to 120 °C for the second.

First: CC1(CO)CCN(c2ccc(C#N)c3ccccc23)CC1
Second: Fc1ccc2c(N3CCN(Cc4ccccc4)CC3)n[nH]c2c1
The melting point of the first is lower: 136 to 137 °C for the first, 162 °C for the second.

First: COc1nc2cc(Cl)c(Cl)c(-n3c(CN(C)C)nnc3-c3cccnc3)c2nc1OC
Second: COc1ccc(S(=O)(=O)N(CC(N)=O)c2ccc(Cl)cc2Cc2c(Cl)cccc2Cl)cc1OC
The melting point of the first is lower: 192 to 194 °C for the first, 195 °C for the second.

First: Oc1ccc(-c2ccc(C(F)(F)F)cc2)cn1
Second: CCCC(=O)Nc1n[nH]c2cc(-c3ccc(O)cc3)ccc12
The melting point of the first is lower: 178 to 182 °C for the first, 235 °C for the second.

First: CCCCNC(=O)N(Cc1ccccn1)C1CCN(c2ncnc3cc(OC)c(OC)cc23)CC1
Second: CCn1nc(C(=O)NC2CN(C)CCN(Cc3cccc(C)c3)C2)c2ccccc21 (stereo not given)
The melting point of the first is higher: 162 to 164 °C for the first, 135 to 137 °C for the second.

First: COC(=O)CCCCCCC(C(=O)OC)S(C)(=O)=O (stereo not given)
Second: CCCCCNS(=O)(=O)NC(=O)/C(C)=C/c1ccc(OC(C)C)cc1Oc1ncc(C(F)(F)F)cc1Cl
The melting point of the first is lower: 47 to 48 °C for the first, 138 °C for the second.

First: N#Cc1ccc(OCCCCCOc2ccc(-c3cc4ccc(C#N)cc4o3)cc2)cc1
Second: Cc1cc(CCCCCOc2ccc(C3=NCCO3)cc2)no1
The melting point of the first is higher: 165 to 167 °C for the first, 91 to 92 °C for the second.

First: COc1nc(Cl)cnc1NS(=O)(=O)c1ccccc1-c1ccc(OC(C)C(=O)O)cc1 (stereo not given)
Second: CC(C)OCC(=O)CC1c2ccccc2C(=O)N1c1ccc2ccc(Cl)nc2n1 (stereo not given)
The melting point of the first is higher: 223 to 225 °C for the first, 200 °C for the second.

Compared with `CCCn1c(=O)c2[nH]c(/C=C/c3ccc(OC)c(Br)c3)nc2n(CCC)c1=O`, `CCn1c(-c2ccc(OC)c(OC)c2)cc(=Nc2c(C)cc(C)cc2C)n(C)c1=O` is lower in melting point: 280 to 281 °C for the first, 57 to 61 °C for the second.

First: O=c1c2ccccc2c(Br)cn1C1CN2CCC1CC2 (racemic)
Second: CN1CCC(C(=O)CCc2ccccc2O)CC1
The melting point of the first is higher: 208 to 209 °C for the first, 99 to 101 °C for the second.

First: Cc1ccsc1C(=O)c1cccn1N
Second: CCOC(=O)C(=O)CC(=O)c1c(-c2ccccc2)cc2ccccn12
The melting point of the first is lower: 42 to 44 °C for the first, 100 to 102 °C for the second.

First: COC(=O)c1ccc(NC(C)=O)c(C=NO)c1
Second: COC(=O)c1cccc(NC(=O)c2ccc(OC)c([N+](=O)[O-])c2)c1
The melting point of the first is lower: 200 to 203 °C for the first, 233 to 235 °C for the second.

First: COc1ccc2c(c1)S(=O)(=O)N(C(C)C)C2=O
Second: COC(=O)/C(O)=C1/C(=O)c2ccc(OC)cc2CC1C (stereo not given)
The melting point of the first is higher: 188 °C for the first, 89 to 89.6 °C for the second.

Compared with `CC(C)(C)c1ccc(O[C@@H]2CCC[C@H]2O)c(C(C)(C)C)c1` (relative stereo), `CC(C)(C)c1cccc(C[C@H]2NC(=O)O[C@H]2c2cccc(Cl)c2)c1` (racemic) is higher in melting point: 112 °C for the first, 136 to 137 °C for the second.

First: O=[N+]([O-])c1ccc(Oc2ccccc2)c(Cl)c1NCc1ccc(Cl)cc1
Second: COC(=O)CCNc1cc(Oc2ccc(Cl)cc2Cl)ccc1[N+](=O)[O-]
The melting point of the first is lower: 75 to 76 °C for the first, 115 °C for the second.

First: CS(=O)(=O)Nc1ccc(CO)cc1Sc1ccc(F)cc1F
Second: COc1ccc(-c2nc(N)ncc2-c2ccc(=O)[nH]n2)cc1F
The melting point of the first is lower: 78 to 79 °C for the first, 250 °C for the second.

`Cc1ccc(S(=O)(=O)n2ccc3c(CBr)cccc32)cc1` and `Cc1ccc(C=Cc2ccccc2)cc1` cannot be ordered by melting point: 113 to 134 °C for the first, 117 °C for the second.

First: Cc1cc(/C=C/CC(C)N(C)C(=O)OC(C)(C)C)cnc1N (stereo not given)
Second: CC(C)(C)OC(=O)Nc1cc(CC#N)c(C#Cc2ccccc2)cc1N
The melting point of the first is lower: 78 to 81 °C for the first, 143 °C for the second.

First: O=C(O)c1cn(C2CC2)c2c(F)c(N3CCC4(C3)OCCCO4)c(F)cc2c1=O
Second: CCn1cc(C(=O)O)c(=O)c2cc(F)c(N3CCSCC3)c(F)c21
The melting point of the first is lower: 226 to 227 °C for the first, greater than 300 °C for the second.

First: CCOC(=O)c1c(N(C)C)c2cc(C)ccc2n(Cc2ccccc2)c1=O
Second: Cc1cc2cnnc(OCc3ccc(F)cc3)c2n1Cc1ccccc1
The melting point of the first is lower: 96 to 103 °C for the first, 127 to 132 °C for the second.

First: CCOC(=O)COC1CCC2C3CCC4N=CCCC4(C)C3CCC12C (stereo not given)
Second: CCOC1(C)OCC(O)O1 (stereo not given)
The melting point of the first is higher: 170 to 172 °C for the first, 86 to 87 °C for the second.

Compared with `Cc1cccc(-n2nc(C)cc2-c2ccnc(N(C)C)c2)c1`, `Cc1ccc(-n2c(=O)c(C)nc3cccnc32)cc1` is higher in melting point: 84 to 85 °C for the first, 215 to 216 °C for the second.

First: CCCc1ccnc(C(=O)c2[nH]c3cc(Cl)ccc3c2CC(=O)O)c1
Second: CCCCCc1ccc(C(=O)Cc2cccc(C(=O)O)c2)cc1
The melting point of the first is higher: 189 to 191 °C for the first, 109 to 111 °C for the second.

First: COC(=O)c1cc2c(nc1C1=NC(C)(C(C)C)C(=O)N1)CCOC2 (stereo not given)
Second: COC(=O)c1nc2n(c1C)-c1ccc(Cl)cc1C(c1ccccc1F)=NC2
The melting point of the first is higher: 208 to 220 °C for the first, 137 to 138 °C for the second.

First: COc1cc(OC)nc(Cc2ccccc2N)n1
Second: COc1cc([N+](=O)[O-])c2nccc(C)c2c1OCCCCc1ccccc1
The melting point of the first is lower: 82 to 84 °C for the first, 88 to 89 °C for the second.

First: CN(c1cccs1)c1n[nH]c2ncnc(Nc3cccc(Cl)c3)c12
Second: Nc1cc2c(Nc3ccc(F)c(C(F)(F)F)c3)ncnc2cn1
The melting point of the first is lower: 228 to 229 °C for the first, 252 to 255 °C for the second.

First: Cc1cc(C(=O)NCO)ncc1C(c1c(F)ccc(F)c1F)S(=O)(=O)CCC(F)(F)C(F)(F)F (stereo not given)
Second: O=C(Nc1cccc(S(=O)(=O)NCCc2ccncc2)c1)c1cnn2c(C(F)(F)F)cc(-c3ccc(C(F)(F)F)cc3)nc12
The melting point of the first is lower: 126 to 128 °C for the first, 236 °C for the second.

First: Cc1c(C)c2c(c(C)c1N)CC(C)(CN1CCN(C(=O)c3ccc([N+](=O)[O-])cc3)CC1)O2 (stereo not given)
Second: Cc1c(C)c2c(c(C)c1N)C(c1ccc(Br)cc1)C(C)(C)O2 (single isomer, unassigned; (+))
The melting point of the first is higher: 154 to 158 °C for the first, 143 to 144 °C for the second.

First: COCC(=O)Nc1nc2ccc(F)cc2s1
Second: CCCC(=O)Nc1cc(C(F)(F)F)ccc1SCC#N
The melting point of the first is higher: 139 to 140 °C for the first, 88.5 to 89.5 °C for the second.

Compared with `O=[N+]([O-])c1cc2nc(O)c(O)nc2c2ncccc12`, `CSc1ccc(C(N)=O)c([N+](=O)[O-])c1` is lower in melting point: greater than 300 °C for the first, 176 to 178 °C for the second.

Compared with `FC(F)c1cccc(C=C2c3ccccc3CCc3ccccc32)c1`, `CCOC(=NS(=O)(=O)c1ccccc1)N1Cc2ccccc2-c2ccccc2C1` is higher in melting point: 92.5 °C for the first, 146 to 150 °C for the second.

Compared with `CC(C)Nc1nc2c(Cl)cc(Cl)cc2n1[C@H]1O[C@@H](CO)[C@H](O)[C@@H]1O`, `Cc1oc(Cl)nc1-c1ccc(Cl)cc1Cl` is lower in melting point: 212 to 214 °C for the first, 78 °C for the second.

Compared with `CCOC(=O)N1CCN(C2c3ccccc3C=Cc3ccccc32)CC1`, `COC(=O)C1Oc2ccccc2C(C)c2ccccc2O1` (stereo not given) is lower in melting point: 159 to 160 °C for the first, 95 to 120 °C for the second.

Compared with `CS(=O)(=O)C(=C1CN(C(c2ccccc2)c2ccccc2)C1)c1cccc(Br)c1`, `O=C(O)c1cccc(-c2nn(Cc3ccccc3)c3ccccc23)c1` is lower in melting point: 200 °C for the first, 190 to 192 °C for the second.

First: O=S1(=O)Cc2ccc(Cl)cc2C(c2ccc(F)cc2)=NN1
Second: CC(C)Cn1c(CNC(=O)OC(C)(C)C)c(-c2ccc(F)cc2)c2cc(O)ccc2c1=O
The melting point of the first is lower: 195 to 198 °C for the first, 229 to 230 °C for the second.

First: CC(C)n1nc(-c2c(-c3ccccc3)nn3ccc(OCCN4CCCC4)cc23)ccc1=O
Second: O=c1ccn(-c2cccc(F)c2)nc1-c1ccnn1-c1ccccc1
The melting point of the first is lower: 149 to 150 °C for the first, 170 to 171 °C for the second.

Compared with `O=C(CN1CC(S(=O)Cc2ccc(C(=O)O)cc2)C1=O)NCCCCCCc1ccc(Cl)cc1` (stereo not given), `CCOC(=O)C(C#N)(CCCN(C)CCc1ccc(C(=O)OC)cc1)c1ccc(OC)c(OC)c1` (stereo not given) is lower in melting point: 195 to 197 °C for the first, 75 to 77 °C for the second.

First: Cc1nc(I)cn1-c1ccc(F)cc1
Second: COc1ccc(C=Cc2cccc(C#N)n2)cc1
The melting point of the first is higher: 151 °C for the first, 121 to 122 °C for the second.

First: Nc1nnc(-c2ccccc2OC(F)(F)C(F)F)c(N)n1
Second: C=CCOc1ccccc1-c1ccc(C(N)=O)c(=O)[nH]1
The melting point of the first is lower: 158 to 160 °C for the first, 210 to 212 °C for the second.

First: CN(Cc1ccc(NC(=O)C2=Cc3cc(-c4cccc(Cl)c4)ccc3S(=O)(=O)CC2)cc1)C1CCOCC1
Second: CC(=O)c1ccc(Cc2c(Cl)cc(NN=Cc3ccccc3)cc2Cl)cc1
The melting point of the first is higher: 221 to 224 °C for the first, 137 to 139 °C for the second.

First: CCSc1cc(C)nc(SCC)c1NC(=O)CCCSc1nc2ccccc2[nH]1
Second: Cc1nc2c(c3c1[nH]c1cccc(F)c13)C(=O)CC(C(C)C)C2 (stereo not given)
The melting point of the first is lower: 160 to 161 °C for the first, 213 to 215 °C for the second.

First: O=C(C=Cc1cccc(S(=O)(=O)NCc2ccco2)c1)NO
Second: O=[N+]([O-])c1ccc(S(=O)(=O)Nc2cccnc2Nc2ccccc2)cc1
The melting point of the first is lower: 165 °C for the first, 191 to 192 °C for the second.

Compared with `COc1ccc(C(=O)c2noc(CC#N)n2)cc1`, `CCOC(=O)C(C)Oc1ccc([N+](=O)[O-])cc1` (stereo not given) is lower in melting point: 92 to 94 °C for the first, 55 to 56 °C for the second.

Compared with `Cc1cn(CCC(=O)O)c(=O)[nH]c1=O`, `Cc1noc(C)c1Cn1cc(N2C(=O)CN(CCc3ccccc3)C2=O)cn1` is lower in melting point: 118 to 121 °C for the first, 95 to 96 °C for the second.

First: OC1CSC(Oc2ccc(-c3cnccc3F)nc2-c2cnccc2F)C(O)C1O (stereo not given)
Second: Cc1ccc(C(=O)CCc2ccc(N3CCN(c4ccncc4)CC3)cc2)cc1
The melting point of the first is higher: 209 °C for the first, 114 to 115 °C for the second.

Compared with `O=C1c2ccccc2CS(=O)(=O)N1CCC(c1ccccc1)N1CCOCC1` (stereo not given), `O=C([C@@H]1CCCN1C(=O)OCc1ccccc1)N1CCOCC1` is higher in melting point: 130 °C for the first, 139 to 140 °C for the second.

First: Oc1c2c(c3nccc4c3c1CCC4)CCCC2
Second: CN1C(=O)[C@@](NC(=O)Nc2cccc(Nc3nnn[nH]3)c2)(C2CCCCC2)N=Cc2ccccc21
The melting point of the first is higher: 224 °C for the first, 190 to 193 °C for the second.

First: COCc1c(C(=O)OC)sc2nnsc12
Second: CCS(=O)(=O)N=CNCc1cccc(-c2csc(N=C(N)N)n2)n1
The melting point of the first is lower: 123 to 124 °C for the first, 201 °C for the second.

Compared with `Nc1cnc(-c2ccc(F)cc2)n(CC(=O)N[C@@H](Cc2ccccc2)C(=O)C(F)(F)C(=O)NCc2ccccc2)c1=O`, `CC(C)COC[C@H](CC(C)C)NC(=O)[C@H]1O[C@@H]1C(=O)O` is lower in melting point: 90 to 91 °C for the first, 63 °C for the second.
